Assay: excess molar enthalpy (molar enthalpy of mixing); xn = mol fraction of the nth substance listed
Conditions: 303.15 K, 101 kPa, Liquid

CNC(C)=O [N-methylacetamide] + Cc1cc(C)cc(C)c1
Conditions | excess molar enthalpy [kcal/mol]
x1 = 0.1463 | 0.0817
x1 = 0.2448 | 0.0927
x1 = 0.3271 | 0.103
x1 = 0.4098 | 0.105
x1 = 0.4989 | 0.104
x1 = 0.5612 | 0.0978
x1 = 0.6649 | 0.0837
x1 = 0.7283 | 0.0758
x1 = 0.8071 | 0.0607
x1 = 0.884 | 0.0421

CNC(C)=O [N-methylacetamide] + Cc1ccc(C)cc1
Conditions | excess molar enthalpy [kcal/mol]
x1 = 0.1224 | 0.0667
x1 = 0.1703 | 0.0696
x1 = 0.2407 | 0.0705
x1 = 0.3474 | 0.0705
x1 = 0.4018 | 0.0679
x1 = 0.4704 | 0.0624
x1 = 0.6138 | 0.0514
x1 = 0.7126 | 0.0402
x1 = 0.7529 | 0.0366
x1 = 0.8617 | 0.0198

CNC(C)=O [N-methylacetamide] + Cc1ccccc1
Conditions | excess molar enthalpy [kcal/mol]
x1 = 0.1142 | 0.0619
x1 = 0.2405 | 0.0619
x1 = 0.2954 | 0.0571
x1 = 0.377 | 0.0528
x1 = 0.4002 | 0.0521
x1 = 0.4365 | 0.0478
x1 = 0.4708 | 0.0442
x1 = 0.5227 | 0.0428
x1 = 0.5843 | 0.039
x1 = 0.6502 | 0.0301
x1 = 0.7076 | 0.0253
x1 = 0.7798 | 0.0179
x1 = 0.9016 | 0.00741

CNC(C)=O [N-methylacetamide] + c1ccccc1
Conditions | excess molar enthalpy [kcal/mol]
x1 = 0.0848 | 0.0511
x1 = 0.1579 | 0.0562
x1 = 0.2196 | 0.0576
x1 = 0.2809 | 0.0564
x1 = 0.3924 | 0.0516
x1 = 0.4282 | 0.0464
x1 = 0.4628 | 0.0421
x1 = 0.495 | 0.0392
x1 = 0.5438 | 0.0344
x1 = 0.567 | 0.0335
x1 = 0.6331 | 0.0294
x1 = 0.766 | 0.0172
x1 = 0.8432 | 0.0124
x1 = 0.8931 | 0.00837

CNC=O [N-methylformamide] + Cc1ccc(C)cc1
Conditions | excess molar enthalpy [kcal/mol]
x1 = 0.0589 | 0.0696
x1 = 0.0809 | 0.0789
x1 = 0.1371 | 0.105
x1 = 0.648 | 0.117
x1 = 0.7042 | 0.105
x1 = 0.7619 | 0.0911
x1 = 0.8196 | 0.0722
x1 = 0.8715 | 0.0533
x1 = 0.9536 | 0.0241

CNC=O [N-methylformamide] + Cc1ccccc1
Conditions | excess molar enthalpy [kcal/mol]
x1 = 0.1531 | 0.0975
x1 = 0.1852 | 0.102
x1 = 0.2625 | 0.11
x1 = 0.3018 | 0.112
x1 = 0.3404 | 0.115
x1 = 0.3983 | 0.115
x1 = 0.4643 | 0.116
x1 = 0.4821 | 0.114
x1 = 0.5253 | 0.11
x1 = 0.5951 | 0.103
x1 = 0.6171 | 0.102
x1 = 0.645 | 0.0961
x1 = 0.7416 | 0.0765
x1 = 0.8178 | 0.0574
x1 = 0.9166 | 0.0304

CNC=O [N-methylformamide] + c1ccccc1
Conditions | excess molar enthalpy [kcal/mol]
x1 = 0.0011 | 0.00263
x1 = 0.0019 | 0.00454
x1 = 0.1401 | 0.081
x1 = 0.2247 | 0.0918
x1 = 0.2851 | 0.0968
x1 = 0.3412 | 0.0994
x1 = 0.372 | 0.101
x1 = 0.428 | 0.0997
x1 = 0.4525 | 0.0978
x1 = 0.5333 | 0.0927
x1 = 0.6012 | 0.0837
x1 = 0.6365 | 0.0796
x1 = 0.7237 | 0.065
x1 = 0.8274 | 0.0425

Source: the NIST ThermoML archive (doi:10.1021/je700414c)
